Data reported in PMC4573853 (Genes & Development, 2015).
No end group written: not given here.

What was measured:
[1] = target: T1, Taf14 YEATS (residues 1–132) (Saccharomyces cerevisiae, UniProt P35189); test: NMR chemical shift perturbation; format: binding, S. cerevisiae; details: for amide resonance changes / interaction: 15N-labeled Taf14 YEATS (1–132), peptide titration
T1 sequence (P35189 1-132): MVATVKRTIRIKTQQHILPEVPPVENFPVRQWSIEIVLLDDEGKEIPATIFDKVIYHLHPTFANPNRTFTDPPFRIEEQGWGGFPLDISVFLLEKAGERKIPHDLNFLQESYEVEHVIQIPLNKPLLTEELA

taf14Δ cells [2] = details: ref Zhang et al. 2004; cited from earlier work
taf14Δ cells [3] = test: Spotting assay, sensitivity to DNA-damaging agents; format: cell-based, S. cerevisiae; details: Supplemental Fig. S3D
[4] = system: taf14Δ strain (BY4741 background); test: Spotting assay on 6-azauracil medium; format: cell-based, S. cerevisiae; details: Fig. 4F
Yaf9 YEATS domain = details: capacity to bind in vitro; ref Li et al. 2014; cited from earlier work
[5] = 1H,15N HSQC, Supplemental Fig. S2A

H3K9ac5–13: H3K9ac5–13 peptide (Ac-QTARK(Ac)STGG)
binding relative to H3K9ac1–12 [1, 5]: slightly decreased
resonance perturbation pattern relative to H3K9ac1–12 [1, 5]: nearly identical resonance perturbation pattern

COS(C)(=O)=O [MMS, methane methylsulfonate]
sensitivity of taf14Δ cells (taf14Δ cells [2]): sensitive
effect of Taf14 YEATS disruption on response to agent (taf14Δ cells [3]; taf14Δ expressing taf14W81A): significantly impaired the response

O=c1cn[nH]c(=O)[nH]1 [6-AU, 6-azauracil]
rescue of 6-AU growth by taf14W81A ([4]; taf14Δ expressing taf14W81A): unable to rescue
rescue of 6-AU sickness by exogenous TAF14 ([4]; taf14Δ expressing wild-type TAF14): could rescue

H3K9ac1–12: H3K9ac1–12 peptide
amide resonance changes / interaction ([1]; 1H,15N HSQC): strong interaction

phleomycin
sensitivity of taf14Δ strain (taf14Δ cells [3]): sensitivity

CC(=O)NCCCC[C@H](N)C(=O)O [acetylated lysine]
amide resonance changes / interaction ([1]; 1H,15N HSQC): CSPs primarily in an acetyllysine-binding pocket

H3K27ac: H3 peptide acetylated at Lys27 (ATKAARK(Ac)SAPA)
preference of Yaf9 YEATS domain (Yaf9 YEATS domain): capacity to bind

NC(=O)NO [HU, hydroxyurea]
sensitivity of taf14Δ cells (taf14Δ cells [2]): sensitive
sensitivity of taf14Δ strain (taf14Δ cells [3]): sensitivity

H3K27ac21–31: H3K27ac21–31 peptide (ATKAARK(Ac)SAPA)
CSP magnitude relative to H3K9ac ([1]; 1H,15N HSQC, Supplemental Fig. S2B): smaller in magnitude
binding relative to H3K9ac ([1]; inferred from CSP magnitude, Supplemental Fig. S2B): weaker
